The values below come from patent US4654342A, “6-(cyanoguanidinophenyl)pyridazinones as cardiac stimulants” (Smith Kline & French Laboratories Ltd., priority 1984, dated 1987).

The structures appear in SMILES notation. Where two headings read alike, the source gives them in different places.

Assay [1] has as its target T1, Type (III) PDE (Cavia porcellus, UniProt H0VIU9).
T1 construct: phosphodiesterases (PDE) isolated from guinea pig ventricle; from tissue; host or cells: guinea pig ventricle; forms separated by ion-exchange chromatography
T1 sequence (H0VIU9 1-1132): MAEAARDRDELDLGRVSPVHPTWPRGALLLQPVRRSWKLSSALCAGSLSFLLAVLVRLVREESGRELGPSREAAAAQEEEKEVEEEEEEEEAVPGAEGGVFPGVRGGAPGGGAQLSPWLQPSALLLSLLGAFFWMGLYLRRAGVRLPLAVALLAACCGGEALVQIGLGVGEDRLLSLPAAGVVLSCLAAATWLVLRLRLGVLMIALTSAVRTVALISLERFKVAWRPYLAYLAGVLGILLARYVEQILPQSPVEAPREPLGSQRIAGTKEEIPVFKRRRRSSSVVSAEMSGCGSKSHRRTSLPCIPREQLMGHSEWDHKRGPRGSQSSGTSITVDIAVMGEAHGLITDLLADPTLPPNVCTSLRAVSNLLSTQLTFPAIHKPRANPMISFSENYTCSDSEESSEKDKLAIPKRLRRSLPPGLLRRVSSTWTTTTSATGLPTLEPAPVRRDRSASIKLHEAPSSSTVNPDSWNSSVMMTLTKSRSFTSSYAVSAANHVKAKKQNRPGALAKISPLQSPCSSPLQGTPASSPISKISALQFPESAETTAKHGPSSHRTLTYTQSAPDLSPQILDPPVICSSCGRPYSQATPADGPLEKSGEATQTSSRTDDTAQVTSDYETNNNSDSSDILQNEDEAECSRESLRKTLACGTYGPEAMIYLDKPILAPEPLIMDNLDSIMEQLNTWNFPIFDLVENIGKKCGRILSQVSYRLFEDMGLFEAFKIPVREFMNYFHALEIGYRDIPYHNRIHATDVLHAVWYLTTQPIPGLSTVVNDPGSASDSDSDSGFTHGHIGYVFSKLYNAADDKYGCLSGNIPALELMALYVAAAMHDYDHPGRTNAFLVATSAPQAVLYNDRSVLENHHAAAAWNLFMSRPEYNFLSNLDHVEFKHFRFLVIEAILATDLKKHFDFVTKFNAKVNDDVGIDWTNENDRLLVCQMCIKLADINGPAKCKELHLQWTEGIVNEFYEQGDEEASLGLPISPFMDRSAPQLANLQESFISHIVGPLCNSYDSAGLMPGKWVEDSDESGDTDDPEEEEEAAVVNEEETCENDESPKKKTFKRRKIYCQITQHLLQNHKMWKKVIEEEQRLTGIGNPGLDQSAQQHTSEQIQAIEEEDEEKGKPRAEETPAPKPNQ
The experiment in a line: Phosphodiesterase Type (III) inhibition. Type of assay: biochemical, guinea pig. Particulars: 1 μm cyclic AMP, 10 minutes; 10 minutes pre-incubation; read-out: IC50, inhibition of `low Km` Type (III) PDE activity. Here is the method: The products of Example 13 were tested for selectivity as inhibitors of the phosphodiesterases (PDE) isolated from guinea pig ventricle. Three forms of PDE were isolated by ion-exchange chromatography using the method of Thompson et al, Adv. Nucleotide Research, vol 10, p 69, Brooker et al (Eds), Raven Press, 1979.
In separate experiments with the (-)-isomer, the (+)-isomer and racemic material, following a 10 minutes pre-incubation of the test compound with Type (III) PDE, PDE activity was measured at 1 μm cyclic AMP for 10 minutes (using a modification of the method of Davis and Daly, Journal of Cyclic Nucleotide Research, vol 5, p 65, Raven Press, 1979). IC50 values were obtained for inhibition of `low Km` Type (III) PDE activity: […]

Assay [2] concerns right ventricular strips. The experiment in a line: Cardiac stimulant activity in vitro, guinea pig ventricular strips (force of contraction). Here is the method:
The compounds of formula (I) and their pharmaceutically acceptable salts are tested for cardiac stimulant activity following a procedure based on that of S. C. Verma and J. H. McNeill (J.Pharm & Exp. Therapeutics, 200, 352-362 (1977)). Guinea pigs (500-700 g) of either sex are sacrificed and the hearts are quickly removed and transferred to a dissecting dish containing oxygenated bathing fluid. While in the bathing medium, the right ventricle is cut into two strips. The strips are each suspended in a 50 ml bath containing Krebs Henseleit solution at 37° C., and the bath is bubbled with 95% oxygen and 5% carbon dioxide. The ventricular strips are electrically stimulated at a frequency of 1.0 Hz, at double the threshold voltage. A resting tension of 1.0 g is applied to the strips and the tension is kept constant by readjustment during an equilibration period of 60 minutes. The bathing fluid is frequently changed during this period. When a steady base line is obtained, a compound under test is added to the bathing fluid and a cumulative concentration response curve is plotted. The compounds for use in the present invention which were tested gave a 50% increase in the force of contraction of the ventricular strips at concentrations in the bathing fluid of less than 10^-4 molar, thus showing that they have activity as positive inotropic agents.

Assay [3] has as its system hindquarters blood flow. The experiment in a line: Vasodilator activity, anaesthetised rat hindquarters autoperfused at constant blood pressure. Type of assay: in vivo. Particulars: anaesthetised rat hindquarters screen. An excerpt:
The dose to increase hindquarters blood flow by 50% was 4.6 μmol/Kg.

The subject of assay [4] is left ventricular dp/dt max. Put plainly: Cardiac stimulant activity in vivo, anaesthetised cats (left ventricular dp/dt max). Also on record: species or system cat; key to Relative Duration: ***: long; **: medium; *: short. To be noted: for positive inotropism, relative to the (+)-isomer: anaesthetised cat screen; for ED50: Felis catus, intravenous, dose to increase left ventricular dp/dt max by 50%, anaesthetised cats; for Relative Duration: estimated in anaesthetised cats following i.v. administration. An excerpt:
The dose to increase left ventricular dp/dt max by 50% is given as the ED50.

Assay [5] has as its system hindquarters perfusion pressure. The experiment in a line: Vasodilator activity, anaesthetised cat hindquarters autoperfused at constant blood flow. Type of assay: in vivo. Particulars: for vasodilatation, relative to the (+)-isomer: anaesthetised cat screen; for ED15: Felis catus, anaesthetised cat, constant blood flow, read-out: dose to decrease hindquarters perfusion pressure (vasodilatation) by 15%. How it is done: The compounds of Examples 3, 4, 5 and 8 were tested in autoperfused anaesthetised cat hindquarters (autoperfused at constant blood flow). The doses to decrease hindquarters perfusion pressure (vasodilatation) by 15% are given below: […]

Assay [6] concerns left ventricular dp/dt max. The experiment in a line: Cardiac stimulant activity in vivo, conscious dogs (left ventricular dp/dt max). Further details: species or system dog. How it is done:
Oral administration caused positive inotropic responses at doses of 0.25 mg/kg and below. […] Therefore this compound is particularly beneficial with regard to `force-rate` selectivity.

Where [7] appears, read: in vitro, read-out: EC50 value, inotropic activity on guinea pig ventricular strip.
Setting [8] is: Cavia porcellus, 50% increase in force of contraction, guinea pig ventricular strips, read-out: EC50 × 10^-6 M.

In general, IC50 refers to the midpoint of a concentration-inhibition curve. For the molecule `CC1CC(=O)NN=C1c1ccc(N)cc1` (racemic) [racemate, 6-(4-aminophenyl)-5-methyl-4,5-dihydro-3(2H)-pyridazinone], the IC50 in assay [1] was determined as 37 ± 12.9 µM.

As for `CC1CC(=O)NN=C1c1ccc(N)cc1` (single isomer, unassigned; (+)) [(+)-isomer, (+)-6-(4-aminophenyl)-5-methyl-4,5-dihydro-3(2H)-pyridazinone], the IC50 in assay [1] is 207 ± 88 µM. Also, the EC50 in assay [2] (setting [7]) was determined as 11.3 µM.

As for `CNC(=NC#N)Nc1ccc(C2=NNC(=O)CC2C)cc1` (single isomer, unassigned; (+)) [Example 15, (+)-6-[4-(N^3 -Methyl-N^2-cyanoguanidino)phenyl]-5-methyl-4,5-dihydro-3(2H)-pyridazinone], in assay [1], the IC50 was 11.3 ± 5.4 µM. Besides, in assay [3], the “dose to increase hindquarters blood flow by 50%” value is 8.6 µM/kg. Further, the EC50 in assay [2] (setting [7]) amounted to 4.3 µM.

Consider `CC1CC(=O)NN=C1c1ccc(N)cc1` (single isomer, unassigned; (-)) [(-)-isomer, (-)-6-(4-aminophenyl)-5-methyl-4,5-dihydro-3(2H)-pyridazinone], for which the “positive inotropism, relative to the (+)-isomer” value in assay [4] is given as “more active than the (+)-isomer”. Also, in assay [1], the 50% inhibitory concentration (IC50) amounted to 9.6 ± 3.4 µM. Moreover, in assay [5], the “vasodilatation, relative to the (+)-isomer” value is on record as “more active than the (+)-isomer”. For the same molecule, in assay [2] (setting [7]), the EC50 is 1.4 µM.

As for `CNC(=NC#N)Nc1ccc(C2=NNC(=O)CC2C)cc1` (single isomer, unassigned; (-)) [Example 14, (-)-6-[4-(N^3 -Methyl-N^2-cyanoguanidino)phenyl]-5-methyl-4,5-dihydro-3(2H)-pyridazinone], in assay [4], the “positive inotropism, relative to the (+)-isomer” value is given as “more active than the corresponding (+)-isomer of Example 15”. In addition, the IC50 in assay [1] was 1.7 ± 1 µM. In assay [3], the “dose to increase hindquarters blood flow by 50%” value came out at 2.4 µM/kg. In addition, the “vasodilatation, relative to the (+)-isomer” value in assay [5] was “more active than the corresponding (+)-isomer of Example 15”. In assay [2] (setting [7]), the EC50 was 0.71 µM.

For the molecule `Nc1cc(-c2ccncc2)c[nH]c1=O` [Amrinone, reference compound], in assay [4], the ED50 was 5.6 µmol/kg and the “Relative Duration” value is given as “*”. In assay [2] (setting [8]), the EC50 amounted to 15 µM. Further, in assay [6], the “activity relative to compound of Example 1” value is “less active” and the “duration relative to compound of Example 1” value is reported as “of shorter duration”.

For the molecule `CCNC(=NC#N)Nc1ccc(C2=NNC(=O)CC2C)cc1` (stereo not drawn) [Example 3, 6-[4-(N^3 -Ethyl-N^2-cyanoguanidino)phenyl]-5-methyl-4,5-dihydro-3(2H)-pyridazinone], in assay [4], the ED50 was determined as 0.2 µmol/kg and the “Relative Duration” value is reported as “***”. The ED15 in assay [5] came out at 0.044 mg/kg. Further, the EC50 in assay [2] (setting [8]) is 1.4 µM.

In the case of `CC(C)NC(=NC#N)Nc1ccc(C2=NNC(=O)CC2C)cc1` (stereo not drawn) [Example 4, 6-[4-(N^3 -Isopropyl-N^2-cyanoguanidino)phenyl]-5-methyl-4,5-dihydro-3(2H)-pyridazinone], in assay [4], the ED50 worked out at 0.2 µmol/kg and the “Relative Duration” value is “**”. Also, the ED15 in assay [5] was determined as 0.082 mg/kg. Further, the EC50 in assay [2] (setting [8]) worked out at 0.8 µM.

Turning to `CCCCNC(=NC#N)Nc1ccc(C2=NNC(=O)CC2C)cc1` (stereo not drawn) [Example 5, 6-[4-(N^3 -Butyl-N^2-cyanoguanidino)phenyl]-5-methyl-4,5-dihydro-3(2H)-pyridazinone], in assay [4], the ED50 was 0.31 µmol/kg and the “Relative Duration” value is given as “**”. Moreover, in assay [5], the ED15 is 0.13 mg/kg. In addition, in assay [2] (setting [8]), the EC50 came out at 8.5 µM.

`CC1CC(=O)NN=C1c1ccc(NC(N)=NC#N)cc1` (stereo not drawn) [Example 6, 6-[4-(N^2 -Cyanoguanidino)phenyl]-5-methyl-4,5-dihydro-3(2H)-pyridazinone]: in assay [4], the ED50 was determined as 0.7 µmol/kg and the “Relative Duration” value is “***”. Also, the EC50 in assay [2] (setting [8]) turned out to be 1.4 µM.

On to `CNC(=NC#N)Nc1ccc(C2=NNC(=O)CC2)cc1` [Example 8, 6-[4-(N^3 -Methyl-N^2-cyanoguanidino)phenyl]-4,5-dihydro3(2H)-pyridazinone], for which, in assay [4], the ED50 was 1.6 µmol/kg and the “Relative Duration” value was “**”. Also, the ED15 in assay [5] was 1 mg/kg. In assay [2] (Cavia porcellus, at 31.6 × 10^-6 M, read-out: increase in force of contraction (printed in EC50 column)), the activation at 31.6 µM was 40%.
